Where “and” joins values, the source holds several entries; their conditions need not be identical. Equal values may be shown once. Where a name gives a salt, the structure may show the parent alone. Read-outs that look alike come from different tables or passages of the source.
Legend:
rat VMAT2 variants = settings: cited from earlier work
rat VMAT2-His = molecular target: T1, rat VMAT2-His (Rattus norvegicus, UniProt Q01827); experiment: Differential scanning fluorimetry (DSF) with CPM dye: change of melting temperature of purified VMAT2; format: binding
T1 construct: The ORF of rat VMAT2 was subcloned into a pFastBac vector; His; made in house; host or cells: Sf9 insect cells (baculovirus)
Procedure: To screen purified VMAT2 by DSF we expressed the rat VMAT2 protein, as VMAT2-His, in SF9 insect cells using the baculovirus expression system. The transporter was solubilized and purified in n-Dodecyl-β-D-maltoside (DDM)/cholesterol hemisuccinate (CHS) micelles by immobilized metal affinity chromatography (IMAC) and size exclusion chromatography (SEC). […] Screening was performed using DSF and the thiol-reactive dye 7-diethylamino-3-(4-maleimidophenyl)-4-methylcoumarin (CPM), an approach that monitors changes to the protein melting temperature (Tm) upon compound binding. Using CPM or other dyes, DSF-based assays have successfully been used in molecular-based screenings[34],[35]. […] DSF screening was performed in 384 well plates using the thiol-sensing dye 7-diethylamino-3-(4-maleimidophenyl)-4-methylcoumarin (CPM) (Merck). […] Protein melting curves were determined using a LightCycler 480 ii RT-PCR system (Roche), with a temperature ramp increasing from 25 to 95 °C at a rate of 2 °C/min. Data analysis was performed using an in-house software that automatically determines the protein midpoint melting temperature (Tm) based on the second derivative of the melting curves or using the HTSDSF explorer as described in ref. [58]. […] 6 μl of this mix was dispensed to each well of 384 well plates using a Multidrop™ Combi Reagent Dispenser (Thermo Scientific). […] All initial hits were then subjected to an initial validation in triplicates with a compound concentration of 200 μM and a ΔTm > 5× the standard deviation (SD) cut off. […] Processing of the data from the primary screening and the concentration-dependent validation was performed as reported.

human VMAT2 = molecular target: T2, human VMAT2 (Homo sapiens, UniProt Q05940); experiment: FFN206 uptake assay in transfected Hek293 cells; format: cell-based; settings: Table S1, substrate uptake assays in transfected Hek293 cells
T2 construct: expressed in transfected cells; host or cells: Hek293 cells, transient

human VMAT1 = molecular target: T3, human VMAT1 (Homo sapiens, UniProt P54219); experiment: FFN206 uptake assay in transfected Hek293 cells; format: cell-based; settings: Table S1, substrate uptake assays in transfected Hek293 cells
T3 construct: expressed in transfected cells; host or cells: Hek293 cells, transient
T3 sequence (P54219 1-525): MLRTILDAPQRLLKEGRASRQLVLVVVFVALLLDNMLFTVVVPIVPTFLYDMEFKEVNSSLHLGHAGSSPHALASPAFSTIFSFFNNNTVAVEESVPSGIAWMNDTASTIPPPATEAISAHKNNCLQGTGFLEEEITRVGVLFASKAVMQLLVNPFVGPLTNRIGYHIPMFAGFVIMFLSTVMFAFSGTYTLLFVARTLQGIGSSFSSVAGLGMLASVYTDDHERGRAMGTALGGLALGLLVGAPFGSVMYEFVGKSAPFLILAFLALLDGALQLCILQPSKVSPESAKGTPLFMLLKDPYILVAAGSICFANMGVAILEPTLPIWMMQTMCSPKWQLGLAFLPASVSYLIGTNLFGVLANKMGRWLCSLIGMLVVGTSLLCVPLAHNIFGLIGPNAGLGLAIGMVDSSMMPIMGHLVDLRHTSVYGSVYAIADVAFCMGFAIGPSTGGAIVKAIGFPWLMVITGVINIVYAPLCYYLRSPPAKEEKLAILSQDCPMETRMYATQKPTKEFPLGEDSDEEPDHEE

VMAT2 [1] = molecular target: T4, VMAT2 (Rattus norvegicus, UniProt Q01827); settings: hek293 cells, 50 µM
Procedure: (§1) We preincubated cells expressing VMAT2 with 50 μM compounds and measured [^3H]-DTBZ binding (5 nM) to the sample (Fig. 3a). […] Hek293 cells were grown and transfected with pcDNA3.1 VMAT2-His as described above. Two days after transfection, cells were harvested, washed and transferred to 96 well MultiScreen FB filter plates (Millipore). […] Cells were washed 3 times with ice cold PBS and 50 µl Ultima Gold LLL (PerkinElmer) was added to each well. […] After a 20 min incubation at 37 °C, cells were washed and [^3H] scintillation counting was performed as described above.

rat VMAT2 Q143A = rat VMAT2 Q143A (Rattus norvegicus, UniProt Q01827, Q143A); experiment: FFN206 uptake assay, VMAT2 mutant
Procedure: (§2) For activity assays, [^3H]-DTBZ and [^3H]-SMT binding and competition assays (see section below), several VMAT2 mutants were prepared. […] In addition, a selection of rVMAT2 mutants carrying mutations designed from binding modes identified by docking and MD-simulation was prepared in a pcDNA3.1 rVMAT2-Strep tag II plasmid.

rat VMAT2 P314A = rat VMAT2 P314A (Rattus norvegicus, UniProt Q01827, P314A); experiment: FFN206 uptake assay, VMAT2 mutant
Procedure: as §2

rat VMAT2 = rat VMAT2 (Rattus norvegicus, UniProt Q01827); experiment: FFN206 uptake assay in transfected Hek293 cells; settings: for FFN206 uptake relative to no compound (=1), replicate samples: Fig. 2b/2c source data
VMAT2 [2] = molecular target: T4, VMAT2; experiment: [3H]-DTBZ competition assay in Hek293 cells expressing VMAT2;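 on all read-outs here: HEK293 cells transfected with VMAT2, pretreated 30 min with compound, then given 5 nM [3H]-DTBZ for 20 min at 37 °C, bound label read by scintillation counting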; settings: for [3H]-DTBZ binding relative to no compound (=1), replicate samples: Fig. 3b source data
Procedure: as §1

T4 sequence (Q01827 whole entry): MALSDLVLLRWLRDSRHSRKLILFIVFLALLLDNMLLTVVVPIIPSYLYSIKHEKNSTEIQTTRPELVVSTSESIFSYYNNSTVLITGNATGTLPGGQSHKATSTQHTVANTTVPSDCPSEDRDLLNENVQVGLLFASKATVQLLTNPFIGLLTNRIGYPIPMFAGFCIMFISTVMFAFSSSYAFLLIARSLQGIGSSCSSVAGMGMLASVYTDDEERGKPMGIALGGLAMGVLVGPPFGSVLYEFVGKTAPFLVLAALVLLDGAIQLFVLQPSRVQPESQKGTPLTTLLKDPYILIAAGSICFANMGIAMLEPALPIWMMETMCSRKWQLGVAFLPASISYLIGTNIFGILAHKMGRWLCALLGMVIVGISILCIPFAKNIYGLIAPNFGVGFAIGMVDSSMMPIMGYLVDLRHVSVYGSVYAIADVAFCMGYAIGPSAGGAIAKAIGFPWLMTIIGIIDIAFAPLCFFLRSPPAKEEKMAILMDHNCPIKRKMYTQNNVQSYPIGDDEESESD
T1 sequence (Q01827 whole entry): as above
rat VMAT2, sequence (Q01827 whole entry): as above
rat VMAT2 Q143A, sequence (Q01827 whole entry Q143A): as the sequence (Q01827 whole entry) above, with Q143A counted along it
rat VMAT2 P314A, sequence (Q01827 whole entry P314A): as the sequence (Q01827 whole entry) above, with P314A counted along it
T2 sequence (Q05940 whole entry): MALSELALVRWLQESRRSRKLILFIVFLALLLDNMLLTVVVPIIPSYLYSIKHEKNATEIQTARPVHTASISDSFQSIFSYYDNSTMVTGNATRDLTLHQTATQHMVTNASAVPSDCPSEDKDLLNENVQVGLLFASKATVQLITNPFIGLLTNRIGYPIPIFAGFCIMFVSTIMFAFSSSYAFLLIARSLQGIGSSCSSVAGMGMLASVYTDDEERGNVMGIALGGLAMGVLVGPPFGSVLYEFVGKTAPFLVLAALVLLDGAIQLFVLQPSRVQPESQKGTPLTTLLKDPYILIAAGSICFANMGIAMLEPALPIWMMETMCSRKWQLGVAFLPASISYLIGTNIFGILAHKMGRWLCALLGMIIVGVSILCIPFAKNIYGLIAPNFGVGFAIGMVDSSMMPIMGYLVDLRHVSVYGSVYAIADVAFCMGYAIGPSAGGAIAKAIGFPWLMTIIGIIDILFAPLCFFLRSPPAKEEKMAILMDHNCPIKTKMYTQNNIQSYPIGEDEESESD

[3H]‐tetrabenazine
[3H]-tetrabenazine binding (rat VMAT2 variants): no TBZ binding | [3H]-tetrabenazine binding: reduction (rat VMAT2 variants): > 90% | [3H]-tetrabenazine binding: reduction in binding (rat VMAT2 variants): 50% | [3H]-tetrabenazine binding (rat VMAT2 variants; variant E313D, ref [3, 4]): no binding

O=C1Cc2cc(CCN3CCN(c4nsc5ccccc45)CC3)c(Cl)cc2N1 [Ziprasidone, Ziprasidone Hydrochloride]
ΔTm (rat VMAT2-His; Table 1, DSF screening, mean ± SD of triplicates): 2.69 ± 0.12 oC | ΔTm at 12 µM (rat VMAT2-His; Table S2 dose response, compound 0,12 µM, read-out: ΔTm): 0.41 °C | ΔTm at 37 µM (rat VMAT2-His; Table S2 dose response, compound 0,37 µM, read-out: ΔTm): 0.68 °C | ΔTm at 10 µM (rat VMAT2-His; Table S2 dose response, compound 10 µM, read-out: ΔTm): 0.6 °C | ΔTm at 30 µM (rat VMAT2-His; Table S2 dose response, compound 30 µM, read-out: ΔTm): 0.71 °C | ΔTm at 90 µM (rat VMAT2-His; Table S2 dose response, compound 90 µM, read-out: ΔTm): 1.13 °C | ΔTm at 270 µM (rat VMAT2-His; Table S2 dose response, compound 270 µM, read-out: ΔTm): 1.82 °C | ΔTm at 11 µM (rat VMAT2-His; Table S2 dose response, compound 1,11 µM, read-out: ΔTm): 0.69 °C | ΔTm at 33 µM (rat VMAT2-His; Table S2 dose response, compound 3,33 µM, read-out: ΔTm): 0.58 °C | IC50 (human VMAT2): 23 nM | IC50 (human VMAT1): 35 nM | activity (VMAT2 [1]): 36.5 ± 7.71% | IC50 (rat VMAT2 Q143A): 354 ± 83 nM | fold increased IC50 vs wild-type (rat VMAT2 Q143A; Q143A): ~10 fold | IC50 (rat VMAT2 P314A): 132 ± 8 nM | fold increased IC50 vs wild-type (rat VMAT2 P314A; P314A): approx. 3 fold | IC50 (rat VMAT2): 39 ± 17 nM | VMAT2-specific FFN206 uptake relative to DMSO (=1), replicate samples (rat VMAT2; Fig. 2a source data, 25 μM compound): -0.0048 and -0.08665 and -0.06177 and 0.05752 | FFN206 uptake relative to no compound (=1), replicate samples (rat VMAT2; compound 0.0152 μM): 0.7804 and 0.7848 and 0.755 and 0.7991 | FFN206 uptake relative to no compound (=1), replicate samples (rat VMAT2; compound 0.1372 μM): 0.4886 and 0.4837 and 0.4034 and 0.5734 | FFN206 uptake relative to no compound (=1), replicate samples (rat VMAT2; compound 0.4115 μM): 0.4342 and 0.3743 and 0.3683 and 0.4657 | FFN206 uptake relative to no compound (=1), replicate samples (rat VMAT2; compound 1.2346 μM): 0.3953 and 0.3737 and 0.3153 and 0.4191 | FFN206 uptake relative to no compound (=1), replicate samples (rat VMAT2; compound 3.7037 μM): 0.3802 and 0.3604 and 0.2907 and 0.3691 | FFN206 uptake relative to no compound (=1), replicate samples (rat VMAT2; compound 11.1111 μM): 0.4118 and 0.377 and 0.294 and 0.3618 | FFN206 uptake relative to no compound (=1), replicate samples (rat VMAT2; compound 100.0000 μM): 0.3782 and 0.3789 and 0.3057 and 0.3727 | effect on [3H]-DTBZ binding compared with DMSO control (one-way ANOVA, p < 0.001) (VMAT2 [2]; 50 μM compound): statistically significantly effect | [3H]-DTBZ binding relative to no compound (=1), replicate samples (VMAT2 [2]; compound 0.0017): 0.8751 and 1.064 and 1.013 and 0.8455 | [3H]-DTBZ binding relative to no compound (=1), replicate samples (VMAT2 [2]; compound 0.0051): 0.8936 and 1.069 and 1.018 and 0.8322 | [3H]-DTBZ binding relative to no compound (=1), replicate samples (VMAT2 [2]; compound 0.0152): 0.7303 and 1.42 and 1.076 and 0.8096 | [3H]-DTBZ binding relative to no compound (=1), replicate samples (VMAT2 [2]; compound 0.0457): 0.8393 and 0.4876 and 0.8108 and 0.8579 | [3H]-DTBZ binding relative to no compound (=1), replicate samples (VMAT2 [2]; compound 0.1372): 1.015 and 0.924 and 0.9381 and 0.7974 | [3H]-DTBZ binding relative to no compound (=1), replicate samples (VMAT2 [2]; compound 0.4115): 0.6748 and 0.8924 and 0.7988 and 0.4363 | [3H]-DTBZ binding relative to no compound (=1), replicate samples (VMAT2 [2]; compound 1.2346): 0.4427 and 0.7246 and 0.4654 and 0.6729 | [3H]-DTBZ binding relative to no compound (=1), replicate samples (VMAT2 [2]; compound 3.7037): 0.6274 and 0.382 and 0.3472 and 0.5985 | [3H]-DTBZ binding relative to no compound (=1), replicate samples (VMAT2 [2]; compound 11.1111): 0.6424 and 0.4197 and 0.5023 and 0.5651 | [3H]-DTBZ binding relative to no compound (=1), replicate samples (VMAT2 [2]; compound 33.3333): 0.4189 and 0.1764 and 0.1269 and 0.541 | [3H]-DTBZ binding relative to no compound (=1), replicate samples (VMAT2 [2]; compound 100.0000 (μM per methods)): 0.3228 and 0.1927 and 0.2304 and 0.2985

— article PMC9684503 (Communications Biology, 2022)
